Reference: patent US12084472B2 (Ardelyx, Inc., priority 2015, dated 2024)

Target: T1, human TGR5 (Homo sapiens, UniProt Q8TDU6)
T1 construct: expressed in transfected cells; host or cells: HEK293
T1 sequence (Q8TDU6 1-330): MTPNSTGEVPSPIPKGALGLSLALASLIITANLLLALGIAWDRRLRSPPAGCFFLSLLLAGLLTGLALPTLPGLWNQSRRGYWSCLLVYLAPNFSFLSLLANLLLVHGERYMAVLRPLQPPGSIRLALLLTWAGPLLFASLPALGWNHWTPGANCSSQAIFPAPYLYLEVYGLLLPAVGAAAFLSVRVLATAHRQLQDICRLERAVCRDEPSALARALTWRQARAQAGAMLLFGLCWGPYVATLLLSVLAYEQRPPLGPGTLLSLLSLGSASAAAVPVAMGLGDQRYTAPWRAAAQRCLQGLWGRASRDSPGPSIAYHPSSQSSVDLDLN
Assay: Cell-based TGR5 assay (cAMP generation, HTRF)
Settings: HEK293 cells stably transfected with human TGR5; cAMP by HTRF; 30 minutes at 37° C.; read-out: pEC50 Human TGR5 (converted)
In short: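 First, compounds in 3-fold serial dilution were placed in HBSS with 10 mM HEPES pH 7.4 and 0.5 mM IBMX. Next, human TGR5-expressing HEK293 cells were added and incubated 30 min at 37° C. Finally, cAMP was detected by HTRF and pEC50 derived by logistic fitting.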

EC50 [nM]	Compound
126 to 1000	CCC(=O)OC[C@H](NC(=O)NCCCCN(C)S(=O)(=O)c1ccc(Cl)c(COC2(c3cnccc3-c3ccccc3OC3CC3)CC2)c1)[C@@H](OC(=O)CC)[C@H](OC(=O)CC)[C@@H](COC(=O)CC)OC(=O)CC [Compound I-738, (2R,3S,4R,5S)-5-[[(4-[N-methyl[4-chloro-3-([1-[4-(2-cyclopropoxyphenyl)pyridin-3-yl]cyclopropoxy]methyl)benzene]sulfonamido]butyl)carbamoyl]amino]-1,2,4,6-tetrakis(propanoyloxy)hexan-3-yl propanoate]
< 100	CN(CCCCNC(=O)N[C@@H](CO)[C@@H](O)[C@H](O)[C@H](O)CO)S(=O)(=O)c1ccc(Cl)c(CNC2(c3cnccc3-c3ccccc3OC3CC3)CC2)c1 [Compound I-472, 1-(4-{N-methyl4-chloro-3-[({1-[4-(2-cyclopropoxyphenyl)pyridin-3-yl]cyclopropyl}amino)methyl]benzenesulfonamido}butyl)-3-[(2S,3R,4S,5R)-1,3,4,5,6-pentahydroxyhexan-2-yl]urea]
126 to 1000	O=C(NCCCC(CO)c1ccc(Cl)c(CNC2(c3cnccc3-c3ccccc3OC3CC3)CC2)c1)NC[C@H](O)[C@@H](O)[C@H](O)[C@H](O)CO (stereo partly drawn) [Compound I-384, 1-(4-{4-chloro-3-[({1-[4-(2-cyclopropoxyphenyl)pyridin-3-yl]cyclopropyl}amino)methyl]phenyl}-5-hydroxypentyl)-3-[(2S,3R,4R,5R)-2,3,4,5,6-pentahydroxyhexyl]urea]
< 100	CCS(=O)(=O)CCN(CCCC(C)c1ccc(Cl)c(COC2(c3cnccc3-c3ccccc3OC3CC3)CC2)c1)C(=O)[C@@H](O)[C@@H](O)[C@H](O)[C@@H](O)CO (stereo partly drawn) [Compound I-310, (2S,3S,4R,5S)-N-{4-[4-chloro-3-({1-[4-(2-cyclopropoxyphenyl)pyridin-3-yl]cyclopropoxy}methyl)phenyl]pentyl}-N-[2-(ethanesulfonyl)ethyl]-2,3,4,5,6-pentahydroxyhexanamide]
< 100	COCCN(CCCCCNC(=O)NC[C@H](O)[C@@H](O)[C@H](O)[C@H](O)CO)S(=O)(=O)c1ccc(Cl)c(COC2(c3cnccc3-c3ccccc3OC3CC3)CC2)c1 [Compound I-412, 1-{5-[N-(2-methoxyethyl)4-chloro-3-({1-[4-(2-cyclopropoxyphenyl)pyridin-3-yl]cyclopropoxy}methyl)benzenesulfonamido]pentyl}-3-[(2S,3R,4R,5R)-2,3,4,5,6-pentahydroxyhexyl]urea]
< 100	O=C(CCC1CCN(S(=O)(=O)c2ccc(Cl)c(COC3(c4cnccc4-c4ccccc4OC4CC4)CC3)c2)CC1)NC[C@H](O)[C@@H](O)[C@H](O)[C@H](O)CO [Compound I-449, 3-{1-[4-chloro-3-({1-[4-(2-cyclopropoxyphenyl)pyridin-3-yl]cyclopropoxy}methyl)benzenesulfonyl]piperidin-4-yl}-N-[(2S,3R,4R,5R)-2,3,4,5,6-pentahydroxyhexyl]propanamide]
< 100	O=C([C@@H](O)[C@@H](O)[C@H](O)[C@@H](O)CO)N(CCCCCSc1ccc(Cl)c(CNC2(c3cnccc3-c3ccccc3OC3CC3)CC2)c1)CCOCCO [Compound I-598, (2S,3S,4R,5S)-N-[5-({4-chloro-3-[({1-[4-(2-cyclopropoxyphenyl)pyridin-3-yl]cyclopropyl}amino)methyl]phenyl}sulfanyl)pentyl]-2,3,4,5,6-pentahydroxy-N-[2-(2-hydroxyethoxy)ethyl]hexanamide]
< 100	O=S(=O)(c1ccc(Cl)c(COC2(c3cnccc3-c3ccccc3OC3CC3)CC2)c1)N1CCc2nc(O)ccc2C1 [Compound I-734, 6-[[4-chloro-3-([1-[4-(2-cyclopropoxyphenyl)pyridin-3-yl]cyclopropoxy]methyl)benzene]sulfonyl]-5,6,7,8-tetrahydro-1,6-naphthyridin-2-ol]
< 100	CN(CCCCNC(=O)N[C@H](CO)[C@@H](O)[C@H](O)[C@H](O)CO)S(=O)(=O)c1ccc(Cl)c(COC2(c3cnccc3-c3ccccc3OC3CC3)CC2)c1 [Compound I-778]
< 100	O=C(NCCCCCSc1ccc(Cl)c(COC2(c3cnccc3-c3ccccc3OC3CC3)CC2)c1)NCCCCNC(=O)NC[C@H](O)[C@@H](O)[C@H](O)[C@H](O)CO [Compound I-627]
< 100	O=C(CCCCc1cc(Cl)c(COC2(c3cnccc3-c3ccccc3OC3CC3)CC2)cc1Cl)NC[C@@H]1O[C@H](C(=O)O)[C@@H](O)[C@H](O)[C@H]1O [Compound I-93, (2S,3S,4R,5R,6S)-6-((5-(2,5-dichloro-4-((1-(4-(2-cyclopropoxyphenyl)pyridin-3-yl)cyclopropoxy)methyl)phenyl)pentanamido)methyl)-3,4,5-trihydroxytetrahydro-2H-pyran-2-carboxylic acid]
< 100	O=C(NCCCCc1cc(Cl)c(CNC2(c3cnccc3-c3ccccc3OC3CC3)CC2)cc1Cl)NC[C@H](O)[C@@H](O)[C@H](O)[C@H](O)CO [Compound I-138, 1-(4-{2,5-dichloro-4-[({1-[4-(2-cyclopropoxyphenyl)pyridin-3-yl]cyclopropyl}amino)methyl]phenyl}butyl)-3-[(2S,3R,4R,5R)-2,3,4,5,6-pentahydroxyhexyl]urea]
< 100	CC(=O)N(CCCSc1ccc(Cl)c(CNC2(c3cnccc3-c3ccccc3OC3CC3)CC2)c1)C[C@H](O)[C@@H](O)[C@H](O)[C@H](O)CO [Compound I-502, N-[3-({4-chloro-3-[({1-[4-(2-cyclopropoxyphenyl)pyridin-3-yl]cyclopropyl}amino)methyl]phenyl}sulfanyl)propyl]-N-[(2S,3R,4R,5R)-2,3,4,5,6-pentahydroxyhexyl]acetamide]
126 to 1000	CN(CC(=O)O)CC(=O)N(CCCCc1cc(Cl)c(COC2(c3cnccc3-c3ccccc3OC3CC3)CC2)cc1Cl)C[C@H](O)[C@@H](O)[C@H](O)[C@H](O)CO [Compound I-195, 2-{[({4-[2,5-dichloro-4-({1-[4-(2-cyclopropoxyphenyl)pyridin-3-yl]cyclopropoxy}methyl)phenyl]butyl}[(2S,3R,4R,5R)-2,3,4,5,6-pentahydroxyhexyl]carbamoyl)methyl](methyl)amino}acetic acid]
< 100	O=C(NCCCCCNS(=O)(=O)c1ccc(Cl)c(COC2(c3cnccc3-c3ccccc3OC3CC3)CC2)c1)N[C@@H](CO)[C@@H](O)[C@H](O)[C@H](O)CO (stereo in doubt) [Compound I-409, 1-{5-[4-chloro-3-({1-[4-(2-cyclopropoxyphenyl)pyridin-3-yl]cyclopropoxy}methyl)benzenesulfonamido]pentyl}-3-[(2S,3R,4S,5R)-1,3,4,5,6-pentahydroxyhexan-2-yl]urea]
< 100	CN(C[C@H](O)[C@@H](O)[C@H](O)[C@H](O)CO)C(=O)CN1CCN(CCNC(=O)CCCCc2cc(Cl)c(COC3(c4cnccc4-c4ccccc4OC4CC4)CC3)cc2Cl)CC1 [Compound I-100, 5-[2,5-dichloro-4-({1-[4-(2-cyclopropoxyphenyl)pyridin-3-yl]cyclopropoxy}methyl)phenyl]-N-{2-[4-({methyl[(2S,3R,4R,5R)-2,3,4,5,6-pentahydroxyhexyl]carbamoyl}methyl)piperazin-1-yl]ethyl}pentanamide]
